From patent publication US11897876B2, “Isoxazolidines as RIPK1 inhibitors and use thereof” (GENZYME CORPORATION, priority 2022, dated 2024)
Where two headings read alike, the source gives them in different places.

Test system: U937 cells
Assay: Cellular assay in U937 cells, TNFα/zVAD.fmk-induced cell death (necroptosis), MTS readout
Assay type: cell-based
Conditions: Homo sapiens, U-937
From the text: Cellular Assay in U937 Cells to Measure the Activity of RIPK1-Inhibitors on Cell Death (Necroptosis).
Upon TNF-Receptor I ligation, Ser/Thr kinase RIPK1 is recruited to a transient receptor complex I. Upon modification of RIPK1 which promotes activation of RIPK1, complex […] can form, that involves recruitment of RIPK3 and MLKL (mixed lineage-kinase domain-like protein) which then translocates from the cytosol to the plasma membrane to execute cell death (Cai, Z. et al, Nat. Cell Biol. (2014)16:55-65).
Cell death was quantified in 96 well plates by determination of the amount of live cell using a CellTiter 96 AQueous reagent (Promega), a calorimetric method to measure the amount of live cells by reducing tetrazolium compound [3-(4,5-dimethylthiazol-2-yl)-5-(3-carboxymethoxyphenyl)-2-(4-sulfophenyl)-2H-tetrazolium, inner salt; MTS] into formazan. Absorbance of formazan was read at 490 nm. The inhibitory activity of the test compound was quantified in a concentration response curve (CRC) experiment. Compounds were obtained as 10 mM stock solutions and were diluted 1 to 10 volumes with DMSO to yield a 1 mM solution. From this solution 2 μl were diluted with 998 μl growth medium. 100 μl of 2 μM compound solution was further diluted sequentially with a dilution factor of 2.5 by adding 150 μl growth medium. A total of 10 concentrations were tested ranging from 10 μM to 0.26 nM or from 1 μM to 0.07 nM.
U937 cells were cultured in RPM11640 Glutamax and 10% heat inactivated FBS. 50 μl cell suspension containing 1×10^6 cells/ml supplemented with 50 μM zVAD.fmk (Benzyloxycarbonyl-Val-Ala-Asp (OMe) fluoromethylketone) and 100 ng/ml recombinant human TNFα were dispensed in each well of a 96-well plate. 50 μl of compound dilutions (see above) were added and the cell suspension incubated overnight (18 to 24 hrs) at 37° C., 5% CO2 in a humidified atmosphere (95% rH). High (no compound) and low control (no TNFα, zVAD.fmk) were tested with 7 replicates; all compound concentrations were tested in duplicates on each experimental plate.
CellTiter 96 Aqueous reagent was mixed (100 μl PMS (phenazine methosulfate) solution/2 ml MTS (3-(4,5-[…])-5-(3-carboxymethoxyphenyl)-2-(4-sulfophenyl)-2H-tetrazolium, inner salt) solution) and 20 μl were added per well. After 4 hrs incubation at 37° C. (5% CO2 95% rH) optical density was measured at 490 nm on a microplate reader (Tecan Infinite M1000).
The % inhibition is expressed as percentage of the maximal inhibition value obtained in the absence of TNFα/zVAD.fmc.

[1] = U937 cells, 100 ng/ml TNFα + 50 μM zVAD.fmk, overnight (18 to 24 hrs), read-out: U937 IC50
[2] = own data, read-out: IC50 (U937)

Row | SMILES | IC50 [1] | IC50 [2] | IC50 (own data, read-out: pIC50 (U937) (converted))
1 | O=C(C1CCN(c2nccc(-c3ccccc3)n2)CC1)N1N=CCC1c1ccccc1 (centres unmarked) [Comparator Example A, (3-Phenyl-3,4-dihydropyrazol-2-yl)-[1-(4-phenylpyrimidin-2-yl)-4-piperidyl]methanone, reference compound] | 8 nM | 8 nM | 
2 | O=C(C1CCN(c2nccc(-c3ccccc3)n2)CC1)N1OCC[C@H]1c1ccccc1 [Comparator Example B, [(3S)-3-Phenylisoxazolidin-2-yl]-[1-(4-phenylpyrimidin-2-yl)-4-piperidyl]methanone, reference compound] | 9.4 nM | 9 nM | 
3 | Cc1nnc(-c2cc(N3CCC(C(=O)N4N=CC[C@H]4c4ccccc4)CC3)ncn2)o1 [Comparator Example C, [1-[6-(5-Methyl-1,3,4-oxadiazol-2-yl)pyrimidin-4-yl]-4-piperidyl]-[(3S)-3-phenyl-3,4-dihydropyrazol-2-yl]methanone, reference compound] | 59 nM |  | 59 nM
4 | Cc1nnc(-c2cc(N3CCC(C(=O)N4OCC[C@H]4c4ccccc4)CC3)ncn2)o1 [Comparator Example D, [1-[6-(5-Methyl-1,3,4-oxadiazol-2-yl)pyrimidin-4-yl]-4-piperidyl]-[(3S)-3-phenylisoxazolidin-2-yl]methanone, reference compound] | 92 nM | 92 nM | 
5 | Cc1nnc(-c2cc(N3CCC(C(=O)N4OCC[C@H]4c4cc(F)cc(C#N)c4)CC3)ncn2)o1 [Comparator Example E, 3-Fluoro-5-[(3S)-2-[1-[6-(5-methyl-1,3,4-oxadiazol-2-yl)pyrimidin-4-yl]piperidine-4-carbonyl]isoxazolidin-3-yl]benzonitrile, reference compound] | 197 nM | 197 nM | 
6 | Cc1nccn1-c1cc(N2CCC(C(=O)N3OCC[C@H]3c3cc(F)cc(C#N)c3)CC2)ncn1 [Example 1, 3-Fluoro-5-[(3S)-2-[1-[6-(2-methylimidazol-1-yl)pyrimidin-4-yl]piperidine-4-carbonyl]isoxazolidin-3-yl]benzonitrile] | 5.9 nM |  | 
7 | Cc1c(F)cc([C@@H]2CCON2C(=O)C2CCN(c3cc(-n4ccnc4C)ncn3)CC2)cc1C#N [Example 2, 3-Fluoro-2-methyl-5-[(3S)-2-[1-[6-(2-methylimidazol-1-yl)pyrimidin-4-yl]piperidine-4-carbonyl]isoxazolidin-3-yl]benzonitrile] | 3.8 nM |  | 
8 | Cn1nccc1-c1cc(N2CCC(C(=O)N3OCC[C@H]3c3cc(F)cc(C#N)c3)CC2)ncn1 [Example 3, 3-Fluoro-5-[(3S)-2-[1-[6-(2-methylpyrazol-3-yl)pyrimidin-4-yl]piperidine-4-carbonyl]isoxazolidin-3-yl]benzonitrile] | 8.1 nM |  | 
9 | Cn1nccc1-c1cc(N2CCC(C(=O)N3OCC[C@H]3c3cc(F)cc(F)c3)CC2)ncn1 [Example 4, [(3S)-3-(3,5-Difluorophenyl)isoxazolidin-2-yl]-[1-[6-(2-methylpyrazol-3-yl)pyrimidin-4-yl]-4-piperidyl]methanone] | 5 nM |  | 
10 | Cn1nccc1-c1cc(N2CCC(C(=O)N3OCC[C@H]3c3cc(F)cc(Cl)c3)CC2)ncn1 [Example 5, [(3S)-3-(3-Chloro-5-fluoro-phenyl)isoxazolidin-2-yl]-[1-[6-(2-methylpyrazol-3-yl)pyrimidin-4-yl]-4-piperidyl]methanone] | 3 nM |  | 
11 | Cc1n[nH]cc1-c1cc(N2CCC(C(=O)N3OCC[C@H]3c3cc(F)cc(C#N)c3)CC2)ncn1 [Example 6, 3-Fluoro-5-[(3S)-2-[1-[6-(3-methyl-1H-pyrazol-4-yl)pyrimidin-4-yl]piperidine-4-carbonyl]isoxazolidin-3-yl]benzonitrile] | 11.7 nM |  | 
12 | Cc1nc(C2CC2)cn1-c1cc(N2CCC(C(=O)N3OCC[C@H]3c3cc(F)cc(C#N)c3)CC2)ncn1 [Example 7, 3-[(3S)-2-[1-[6-(4-Cyclopropyl-2-methyl-imidazol-1-yl)pyrimidin-4-yl]piperidine-4-carbonyl]isoxazolidin-3-yl]-5-fluoro-benzonitrile] | 3.6 nM |  | 
13 | Cc1c(F)cc([C@@H]2CCON2C(=O)C2CCN(c3cc(-n4cc(C5CC5)nc4C)ncn3)CC2)cc1C#N [Example 8, 5-[(3S)-2-[1-[6-(4-Cyclopropyl-2-methyl-imidazol-1-yl)pyrimidin-4-yl]piperidine-4-carbonyl]isoxazolidin-3-yl]-3-fluoro-2-methyl-benzonitrile] | 1 nM | 1 nM | 
14 | Cc1cc(-c2cc(N3CCC(C(=O)N4OCC[C@H]4c4cc(F)cc(C#N)c4)CC3)ncn2)n(C)n1 [Example 9, 3-[(3S)-2-[1-[6-(2,5-Dimethylpyrazol-3-yl)pyrimidin-4-yl]piperidine-4-carbonyl]isoxazolidin-3-yl]-5-fluoro-benzonitrile] | 15 nM |  | 
15 | Cc1ncn(-c2cc(N3CCC(C(=O)N4OCC[C@H]4c4cc(F)cc(C#N)c4)CC3)ncn2)n1 [Example 10, 3-Fluoro-5-[(3S)-2-[1-[6-(3-methyl-1,2,4-triazol-1-yl)pyrimidin-4-yl]piperidine-4-carbonyl]isoxazolidin-3-yl]benzonitrile] | 2 nM |  | 
16 | Cc1ncnn1-c1cc(N2CCC(C(=O)N3OCC[C@H]3c3cc(F)cc(C#N)c3)CC2)ncn1 [Example 11, 3-Fluoro-5-[(3S)-2-[1-[6-(5-methyl-1,2,4-triazol-1-yl)pyrimidin-4-yl]piperidine-4-carbonyl]isoxazolidin-3-yl]benzonitrile] | 9.3 nM |  | 
17 | Cn1nncc1-c1cc(N2CCC(C(=O)N3OCC[C@H]3c3cc(F)cc(C#N)c3)CC2)ncn1 [Example 12, 3-Fluoro-5-[(3S)-2-[1-[6-(3-methyltriazol-4-yl)pyrimidin-4-yl]piperidine-4-carbonyl]isoxazolidin-3-yl]benzonitrile] | 7 nM |  | 
18 | Cc1nccn1-c1ncnc(N2CCC(C(=O)N3OCC[C@H]3c3cc(F)cc(C#N)c3)CC2)c1F [Example 13, 3-Fluoro-5-[(3S)-2-[1-[5-fluoro-6-(2-methylimidazol-1-yl)pyrimidin-4-yl]piperidine-4-carbonyl]isoxazolidin-3-yl]benzonitrile] | 4.3 nM |  | 
19 | Cc1cnn(-c2ncnc(N3CCC(C(=O)N4OCC[C@H]4c4cc(F)c(C)c(C#N)c4)CC3)c2F)c1 [Example 14, 3-Fluoro-5-[(3S)-2-[1-[5-fluoro-6-(4-methylpyrazol-1-yl)pyrimidin-4-yl]piperidine-4-carbonyl]isoxazolidin-3-yl]-2-methyl-benzonitrile] | 3.4 nM |  | 
20 | Cn1nccc1-c1ncnc(N2CCC(C(=O)N3OCC[C@H]3c3cc(F)cc(F)c3)CC2)c1F [Example 15, [(3S)-3-(3,5-Difluorophenyl)isoxazolidin-2-yl]-[1-[5-fluoro-6-(2-methylpyrazol-3-yl)pyrimidin-4-yl]-4-piperidyl]methanone] | 0.4 nM |  | 
